Test results taken from patent US8680268B2, “Sulfonic acid derivative compound and novel naphthalic acid derivative compound” (Adeka Corporation, priority 2010, dated 2014).

Assays:
[1] = Evaluation of solubility in various organic solvents at 25° C.; format: physicochemical; settings: concentration giving a stable solution
Excerpt: The case in which dissolution occurred at more than 20 mass % is indicated by 20<while the case of less than 0.5 mass % is indicated by 0.5>.

[2] = Measurement of UV absorption spectra of methanol solutions; format: physicochemical; settings: 1×10^−5 mol/liter; for Maximum absorption (nm), first absorption peak / Maximum absorption (nm), second absorption peak: 200 nm to 500 nm; for Maximum absorption (nm), first absorption peak / Absorbance at first absorption peak: (short wavelength); for Maximum absorption (nm), second absorption peak / Absorbance at second absorption peak: long wavelength
Protocol: Solutions of the compounds listed in Table 2 among the compounds yielded in the above described examples and the comparative compounds 1-3 represented by the formulae described below in methanol with 1×10^−5 mol/liter were prepared to measure the UV absorption spectra of the solutions at 200 nm to 500 nm.

SMILES | Solubility in cyclohexanone [1] [mass %] | Solubility in propylene glycol monomethyl ether acetate [1] [mass %] | Solubility in γ-butyrolactone [1] | Maximum absorption (nm), first absorption peak [2] [nm] | Maximum absorption (nm), second absorption peak [2] [nm] | Absorbance at first absorption peak [2] | Absorbance at second absorption peak [2]
O=C1c2cccc3cccc(c23)C(=O)N1OS(=O)(=O)C(F)(F)F [Comparative compound 2] | 7.1 | 1.9 | 4.8 mass % | 226 | 336 | 0.389 | 0.103
CCCCSc1ccc2c3c(cccc13)C(=O)N(OS(=O)(=O)CC13CCC(CC1=O)C3(C)C)C2=O (stereo not shown) [Compound S-28] | 14.0 | 2.8 | 17.8 mass % |  |  |  | 
CCCCCCCCSc1ccc2c3c(cccc13)C(=O)N(OS(=O)(=O)CC13CCC(CC1=O)C3(C)C)C2=O (stereo not shown) [Compound S-29] | > 20 | 9.0 | 20< mass % | 210 | 400 | 0.299 | 0.158
CC1(C)C2CCC1(CS(=O)(=O)ON1C(=O)c3cccc4cccc(c34)C1=O)C(=O)C2 (stereo not shown) [compound 1] | 6.1 | 1.1 | 12.6 mass % | 231 | 335 | 0.413 | 0.133
Cc1ccc(S(=O)(=O)ON2C(=O)c3cccc4cccc(c34)C2=O)cc1 [compound 3] | 1.0 | < 0.5 | 1.9 mass % | 229 | 335 | 0.513 | 0.117
